Assay results: US8551980B2, “Substituted triazolopyridines” (Bayer Intellectual Property GmbH, priority 2009, dated 2013)
pIC50: −log10 of the molar value.

Biological target: T1, human kinase Mps-1 (Homo sapiens, UniProt P33981)
T1 construct: N-terminally GST-tagged human full length recombinant Mps-1 kinase; GST (N); purchased Invitrogen, Karslruhe, Germany PV4071
T1 sequence (P33981 1-857): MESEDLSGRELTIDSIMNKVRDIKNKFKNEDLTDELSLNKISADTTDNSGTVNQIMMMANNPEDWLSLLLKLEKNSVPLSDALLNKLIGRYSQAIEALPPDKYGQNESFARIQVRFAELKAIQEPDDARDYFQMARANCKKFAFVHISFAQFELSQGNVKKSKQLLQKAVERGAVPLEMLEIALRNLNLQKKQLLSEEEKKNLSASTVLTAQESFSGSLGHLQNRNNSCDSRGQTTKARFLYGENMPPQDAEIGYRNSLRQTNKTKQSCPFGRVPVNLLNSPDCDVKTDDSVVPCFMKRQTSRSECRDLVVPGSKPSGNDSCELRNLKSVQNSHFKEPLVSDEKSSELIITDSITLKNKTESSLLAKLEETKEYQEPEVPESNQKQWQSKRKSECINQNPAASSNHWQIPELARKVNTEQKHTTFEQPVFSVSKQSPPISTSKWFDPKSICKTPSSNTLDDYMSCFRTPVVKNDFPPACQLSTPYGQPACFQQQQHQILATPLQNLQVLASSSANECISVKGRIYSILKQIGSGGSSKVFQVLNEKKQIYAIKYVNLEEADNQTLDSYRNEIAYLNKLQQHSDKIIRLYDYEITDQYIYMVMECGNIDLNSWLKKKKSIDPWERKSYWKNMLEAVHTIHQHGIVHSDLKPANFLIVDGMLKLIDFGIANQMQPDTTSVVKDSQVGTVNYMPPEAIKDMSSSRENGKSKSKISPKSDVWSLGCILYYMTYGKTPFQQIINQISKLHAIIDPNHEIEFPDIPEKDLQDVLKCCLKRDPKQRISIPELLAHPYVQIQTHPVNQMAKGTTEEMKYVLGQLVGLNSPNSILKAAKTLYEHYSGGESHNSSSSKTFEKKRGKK
Test: Mps-1 kinase assay (TR-FRET)
Format: biochemical
Details: N-terminally GST-tagged human full length recombinant Mps-1; 10 μM ATP; 1 μM peptide substrate; 60 min at 22° C.; read-out: MPS1 Inhibition, IC50 in M
Description: The human kinase Mps-1 phosphorylates a biotinylated substrate peptide. Detection of the phosphorylated product is achieved by time-resolved fluorescence resonance energy transfer (TR-FRET) from Europium-labelled anti-phospho-Serine/Threonine antibody as donor to streptavidin labelled with cross-linked allophycocyanin (SA-XLent) as acceptor. Compounds are tested for their inhibition of the kinase activity.
N-terminally GST-tagged human full length recombinant Mps-1 kinase (purchased from Invitrogen, Karslruhe, Germany, cat. no PV4071) was used. […]
The resulting mixture was incubated 1 h at 22° C. to allow the binding of the phosphorylated peptide to the anti-phospho(Ser/Thr)-Europium-antibody. Subsequently the amount of phosphorylated substrate was evaluated by measurement of the resonance energy transfer from the Europium-labelled anti-phospho(Ser/Thr) antibody to the Streptavidin-XLent. Therefore, the fluorescence emissions at 620 nm and 665 nm after excitation at 350 nm was measured in a Viewlux TR-FRET reader (PerkinElmer LAS, Rodgau-Jügesheim, Germany). The “blank-corrected normalized ratio” (a Viewlux specific readout, similar to the traditional ratio of the emissions at 665 nm and at 622 nm, in which blank and Eu-donor crosstalk are subtracted from the 665 nm signal before the ratio is calculated) was taken as the measure for the amount of phosphorylated substrate. […]

Cc1c(-c2ccc(NC(=O)Cc3ccccc3)cc2)ccc2nc(Nc3ccccc3C#N)nn12 [Example 1.1, N-(4-{2-[(2-cyanophenyl)amino]-5-methyl[1,2,4]triazolo[1,5-a]pyridin-6-yl}phenyl)-2-phenylacetamide]
pIC50: 8.74
